One data set concerns the target CYP2C19 (Homo sapiens, UniProt P33261). The data set is described as follows: Cytochrome P450 isoform inhibition in human hepatic microsomes, S-mephenytoin (Example 18). In kind it is in vitro ADME. Particulars: both sexes, human, pooled human hepatic microsomes, probe S-mephenytoin 50 μM; positive control 10 μM.
The next data set addresses CYP2C9 (Homo sapiens, UniProt P11712).
For data set [1], the target named is T1, cytochrome P450 2C9 (CYP2C9) (Homo sapiens, UniProt P11712). The data set is described as follows: biochemical.
T1 sequence (P11712 whole entry): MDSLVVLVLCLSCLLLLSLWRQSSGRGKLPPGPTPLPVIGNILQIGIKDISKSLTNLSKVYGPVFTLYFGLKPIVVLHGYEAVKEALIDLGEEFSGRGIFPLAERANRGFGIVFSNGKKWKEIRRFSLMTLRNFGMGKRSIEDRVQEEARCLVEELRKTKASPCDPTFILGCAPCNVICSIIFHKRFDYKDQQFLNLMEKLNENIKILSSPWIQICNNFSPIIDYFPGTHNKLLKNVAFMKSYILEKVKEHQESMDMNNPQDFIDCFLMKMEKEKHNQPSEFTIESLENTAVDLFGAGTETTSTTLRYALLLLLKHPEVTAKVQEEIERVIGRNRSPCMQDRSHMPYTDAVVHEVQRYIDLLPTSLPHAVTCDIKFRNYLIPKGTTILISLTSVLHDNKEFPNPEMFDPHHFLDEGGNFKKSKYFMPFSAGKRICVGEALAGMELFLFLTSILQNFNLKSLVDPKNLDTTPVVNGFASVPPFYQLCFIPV
Protocol: (§2) Tolbutamide hydroxylation activity (100 μM C-tolbutamide; 1 mM NADPH) was assayed in pooled human liver microsomes (0.6 mg protein/ml)) for 60 minutes at 37° C. both with and without test compounds.
Data set [2] deals with T1, cytochrome P450 2C9 (CYP2C9). Put plainly: Inhibition of CYP2C9 tolbutamide hydroxylation activity in pooled human liver microsomes (Example 7). In general terms: Liver microsomes are vesicles of endoplasmic reticulum, rich in cytochrome P450 enzymes.
Protocol: as §2
In a further data set the test system is ZDF rats. Put plainly: Plasma glucose in ZDF rats, (−) versus (+) halofenate (Example 13). The class given is in vivo. Particulars: 50 mg/kg oral once a day for 3 days. The protocol: Male 8-9 week old ZDF rats were purchased from Genetic Models, Inc. (Indianapolis, Ind.). […] Rats that had 4-hour fasting plasma glucose levels between 200 and 500 mg/dL were used. […] The gavage volume was 5 ml/kg. Blood samples were taken at 5 hours post dose on day 2 and 3.

Data set [3] has as its system Zucker fatty rats. Put plainly: Oral glucose challenge in Zucker fatty rats (Example 10). In kind it is in vivo. To be noted: racemate 100 mg/kg, enantiomers 50 and 100 mg/kg; for incremental glucose area under the curve (AUC) vs control, in words: single oral dose. The method, then:
(§1) Prior to treatment, rats were assigned to 6 groups based on body weight. Each treatment group consisted of 8 rats. […] The gavage volume was 10 ml/kg. All rats received an oral glucose challenge (1.9 g/kg) 5.5 hours after the treatment and 4 hours after withdrawal of the food. Blood samples were taken at 0, 15, 30, 60, 90, 120, and 180 minutes following the glucose challenge for plasma glucose measurement. […] On day 5, rats received the intravenous insulin (0.75 U/kg) 5.5 hours after the last dose and 4 hours after withdrawal of the food. Blood samples were taken at 3, 6, 9, 12, 15 and 18 minutes following the insulin injection for plasma glucose measurement.

For data set [4], the system named is Zucker Diabetic Fatty rats. The data set is described as follows: Lipid lowering activity in Zucker Diabetic Fatty rats (Example 11). Particulars: ZDF rats; for plasma cholesterol course during treatment, in words: 13 days, racemate 50 mg/kg/day, enantiomers 25 mg/kg/day. In kind it is in vivo. The protocol: Male Zucker diabetic fatty (ZDF) rats were obtained from GMI Laboratories (Indianapolis, Ind.) at 9 weeks of age. Vehicle or enantiomers of halofenate administered by oral gavage on a daily basis starting at 74 days of age. Initial blood samples were obtained for analysis one day before treatment and at the indicated times in the treatment protocol. Blood was analyzed for plasma triglyceride and cholesterol by standard techniques.

Data set [5] concerns diabetic ob/ob mice. Put plainly: Glucose and insulin lowering on daily oral administration for 5 days in ob/ob mice (Example 9).
Protocol: Animals were housed (4-5 mice/cage) under standard laboratory conditions at 22° C. and 50% relative humidity, and were maintained on a diet of Purina rodent chow and water ad libitum. Prior to treatment, blood was collected from the tail vein of each animal. Mice that had non-fasting plasma glucose levels between 300 and 520 mg/dL were used. Each treatment group consisted of 10 mice that were distributed so that the mean glucose levels were equivalent in each group as the start of the study. […] The gavage volume was 10 ml/kg. Blood samples were taken at 3, 6, 27, 30 and 120 hour after the first dose and analyzed for plasma glucose and insulin. The animals were fasted overnight (14 hours) before the 120 hours sampling. Plasma glucose concentrations were determined calorimetrically using glucose oxidase method (Sigma Chemical Co, St. Louis, Mo., USA). Plasma insulin concentrations were determined by using the Rat Insulin RIA Kit from Linco Research Inc. (St. Charles, Mo., USA). Significance difference between groups (comparing drug-treated to vehicle-treated) was evaluated using Student unpaired t-test.
Data set [6] concerns Zucker fatty rats. The data set is described as follows: Short insulin tolerance test in Zucker fatty rats (Example 10). The class given is in vivo. To be noted: 50 mg/kg/day for 5 days. The method, then:
as §1

The test system of data set [7] is oxonic acid induced hyperuricemic rats. The data set is described as follows: Plasma uric acid in oxonic acid induced hyperuricemic rats (Example 17). In kind it is in vivo. Particulars: oxonic acid hyperuricemic SD rats, oral 50 mg/kg for 3 days, 100 mg/kg on day 4, 6 hours post gavage. The source says: Male SD rats, weight 275-300 g were purchased from Charles River. […] To establish a hyperuricemic state, animals were put on a diet containing 2.5% (w/w) of oxonic acid (Sigma Chemical Co, St. Louis, Mo., USA) throughout the experiment. Oxonic acid elevates plasma uric acid by inhibiting uricase. Rats were screened for plasma uric acid levels 3 days after they were placed on the diet, and those that had extreme plasma uric acid levels were excluded. Rats were assigned to one of three groups and the mean uric acid levels were equivalent in each group. […] Oxonic acid was delivered in a liquid formulation containing 0.9% (w/v) methylcellulose. The gavage and injection volumes were 5 ml/kg. Blood samples were taken at 6 hours post oral gavage on day 4. Plasma uric acid levels were determined colorimetrically using the Infinity Uric Acid Reagent (Sigma Chemical Co, St. Louis, Mo., USA).

Data set [8] has as its system diabetic ob/ob mice. Put plainly: Time course of glucose-lowering after a single oral dose in ob/ob mice (Example 8). The class given is in vivo. To be noted: single oral dose 250 mg/kg.
For another data set, the system named is patients with diabetes. To be noted: cited from earlier work.
A short description of data set [9]: Pharmacokinetic study in SD rats, chiral HPLC of plasma halofenic acids (Example 14). The class given is in vivo. Particulars: single oral dose of (−) halofenate 50 mg/kg. The method, then:
Male 225-250 g SD rats were purchased from Charles River. […] A catheter was placed in the left carotid artery under sodium pentobarbital (50 mg/kg i.p.) and animals were allowed to recover for 2 days before treatment. […] The gavage volume was 5 ml/kg. Blood samples were collected at 1, 2, 4, 6, 8, 12, 24, 48, 72, 96 and 120 hours post dose. The plasma samples were analyzed for each enantiomeric acid ((−) halofenic acid and (+) halofenic acid) by a chiral specific HPLC assay, since the esters are prodrugs, which are designed to convert to their respective enantiomeric acids in vivo.

Data set [10] can be described thus: Plasma hydrolysis of (−) CPTA prodrug esters in human plasma (Example 21). The class given is in vitro ADME. To be noted: human plasma (heparinized, pooled), 125 or 250 μM, 37° C., hydrolysis to (−) CPTA; read-out: Plasma T1/2 (converted). The protocol:
This example illustrates the plasma hydrolysis of various prodrug esters of the (S)-enantiomer of CPTA at physiological conditions. Hydrolysis was monitored and analyzed by HPLC. The hydrolytic product was identified by comparison to authentic (−) CPTA and the hydrolytic rates were calculated. [drawing 83]
Human plasma (heparinized, pooled) was obtained from Golden West Biololgicals Inc., USA; Plasma incubation was carried out in a Water Bath Shaker (New Brunswick Scientific, Inc.); Sample analyses were carried out on Agilent HPLC 1100 system.
Prepare 31.25 or 62.5 mM prodrug stock solutions in 100% DMSO. Add 4 μL of 31.25 or 62.5 mM prodrug stock solutions to 1.0 mL of plasma in a microcentrifuge tube to make plasma concentration at 125 or 250 μM, mix gently. Aliquots of 50 μL are transferred to 15 microcentrifuge vials. Three samples are immediately removed to a freezer at about −80° C. (0 time point), the remaining samples are incubated in a bath shaker at 37° C. Three samples are removed at 30 min, 2, 7 and 24 hr, and stored at −80° C. until analysis. The relative concentrations of MBX-compounds are determined by HPLC methods. If there are enough data points, the hydrolytic rate can be calculated using WinNonlin software. Table 10 provides a summary of plasma half-lives of some pro-drug esters and FIGS. 20A-20G illustrate the hydrolytic curves of those prodrug esters.

The mark [11] stands for this setting: 250 mg/kg/day oral, listed as (+) enantiomer, 250 mg/kg/day.

SMILES strings stand for the structures. “And” between values parts separate entries of the source, which are not always exact repeats. Identical values can stand only once.

The term inhibition denotes the relative decrease from the control value, in per cent. As a reminder, the IC50 is the point on the concentration scale where inhibition reaches its midpoint. A higher IC50 goes with weaker potency in that assay.

Sequence of CYP2C19 (P33261 whole entry, canonical isoform): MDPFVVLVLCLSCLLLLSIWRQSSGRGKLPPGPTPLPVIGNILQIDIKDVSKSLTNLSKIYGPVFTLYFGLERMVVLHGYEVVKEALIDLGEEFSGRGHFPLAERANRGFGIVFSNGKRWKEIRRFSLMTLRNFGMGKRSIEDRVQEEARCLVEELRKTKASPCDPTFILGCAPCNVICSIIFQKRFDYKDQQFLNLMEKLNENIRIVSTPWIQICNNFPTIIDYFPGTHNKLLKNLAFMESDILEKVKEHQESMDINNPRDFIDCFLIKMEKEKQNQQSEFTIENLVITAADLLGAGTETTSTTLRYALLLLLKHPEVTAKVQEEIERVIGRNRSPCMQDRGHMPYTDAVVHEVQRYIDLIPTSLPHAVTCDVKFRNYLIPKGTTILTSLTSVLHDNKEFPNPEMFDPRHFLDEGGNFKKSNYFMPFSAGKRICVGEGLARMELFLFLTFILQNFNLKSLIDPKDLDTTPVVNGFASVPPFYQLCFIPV
Sequence of CYP2C9 (P11712 whole entry): as the sequence (P11712 whole entry) above

Compound `COc1ccc2[nH]c([S+]([O-])Cc3ncc(C)c(OC)c3C)nc2c1` (centres unmarked) [OMP, omeprazole, reference compound] showed an inhibition at 30 min, 10 μM on CYP2C19 of 50%.

In the case of `Nc1ccc(S(=O)(=O)Nc2ccnn2-c2ccccc2)cc1` [SFZ, sulfaphenazole, reference compound], at CYP2C9, the “Tolbutamide 4-OH TB Production” value was “BQL”.

On to `O=C(O)C(Oc1cccc(C(F)(F)F)c1)c1ccc(Cl)cc1` (racemic) [racemic halofenic acid, 4-Chlorophenyl-(3-trifluoromethylphenoxy)-acetic Acid], for which the midpoint of inhibition in [1], the IC50, lay at 450 nM. In data set [2], the “inhibition of cytochrome P450 2C9, in words” value is “found to inhibit cytochrome P450 2C9”.

With `CC(=O)NCCOC(=O)C(Oc1cccc(C(F)(F)F)c1)c1ccc(Cl)cc1` (single isomer, unassigned; (+)) [(+) halofenate, (+) 2-Acetamidoethyl 4-Chlorophenyl-(3-trifluoromethylphenoxy)-acetate, reference compound], in the data set on ZDF rats, the “plasma glucose compared to vehicle-treated animals, in words” value is listed as “failed to reduce plasma glucose concentrations”. Besides, the “incremental glucose area under the curve (AUC) vs control, in words” value in the data set on Zucker fatty rats [3] was “not statistically significant”. Further, the “lowering of plasma triglyceride vs control at 7 days, in words” value in data set [4] (37.5 mg/kg/day (High dose)) is “significant lowering of plasma triglyceride”. The “days of treatment with significant plasma cholesterol decrease vs control” value in data set [4] (37.5 mg/kg/day (High dose), 37.5 mg/kg/day) is recorded as “after 7 days but not after 14 days”. The “plasma cholesterol course during treatment, in words” value in data set [4] is reported as “remained relatively constant”. Moreover, the “overnight fasting plasma insulin after 5 days, in words” value in the data set with diabetic ob/ob mice [5] (125 mg/kg/day oral, listed as (+) enantiomer, 125 mg/kg/day) was “did not lower plasma insulin”. In the data set on diabetic ob/ob mice [5] (setting [11]), the “overnight fasting plasma insulin after 5 days, in words” value is “decrease in plasma insulin”; the “time points with reduced plasma insulin vs control” value is “greatest extent of reduced plasma insulin was noted at 27 and 30 hours”. Besides, in the data set with Zucker fatty rats [6], the “insulin sensitivity (slope of decline in glucose after i.v. insulin), in words” value is on record as “small effect on insulin sensitivity that was not significantly different from the vehicle-treated control”. Besides, the “plasma uric acid levels vs vehicle, in words” value in [7] is “lowered plasma uric acid levels, but it was not statistically significant”.

As to `CC(=O)NCCOC(=O)C(Oc1cccc(C(F)(F)F)c1)c1ccc(Cl)cc1` (racemic) [racemic halofenate, 2-acetamidoethyl (4-chlorophenyl) (3-trifluoromethylphenoxy) acetate, reference compound], in the data set with diabetic ob/ob mice [8], the “time of peak glucose-lowering activity” value turned out to be 9 h and the “time points with significant (p<0.05) decrease in glucose compared to control” value was “most of the timepoints”. For the same compound, the side effects noted result in the data set with patients with diabetes (previous studies) is “gastrointestinal bleeding from stomach and peptic ulcers”. For the same compound, the “effect on glucose in patients with diabetes” value in the data set on patients with diabetes (treated with racemic halofenate alone) was “minimal effect on glucose”. In the data set on Zucker fatty rats [3] (single oral dose 5.5 hours before challenge), the “plasma glucose after oral glucose challenge, in words” value is on record as “plasma glucose was reduced”. For the same compound, the “incremental glucose area under the curve (AUC) vs control, in words” value with Zucker fatty rats [3] is given as “not statistically significant”. In addition, the “plasma cholesterol course during treatment, in words” value in data set [4] is recorded as “plasma cholesterol declined with treatment”. Besides, the “time points with significant plasma glucose reduction vs control” value in the data set with diabetic ob/ob mice [5] (250 mg/kg/day oral) was “Significant decreases in glucose levels”. Further, the “time points with reduced plasma insulin vs control” value in the data set with diabetic ob/ob mice [5] (250 mg/kg/day oral, listed as racemate, 250 mg/kg/day) is “insulins were lower”.

Take `O=C(O)C(Oc1cccc(C(F)(F)F)c1)c1ccc(Cl)cc1` (single isomer, unassigned; (+)) [(+) halofenic acid, (+) 4-chlorophenyl-(3-trifluoromethylphenoxy)-acetic acid, reference compound]: in [9] (individual rats 8, 9, 11), the “plasma concentration at 0 hour” value is given as “BQL (BQL = Below Quantifiable Limit < 1.00 μg/mL)”; the “plasma concentration at 1 hour” value was 1.12 μg/mL and BQL (BQL = Below Quantifiable Limit < 1.00 μg/mL) (2×); the “plasma concentration at 2 hours” value is 1.27 μg/mL and BQL (BQL = Below Quantifiable Limit < 1.00 μg/mL) and 1.09 μg/mL; the “plasma concentration at 4 hours” value was 1.67 μg/mL and BQL (BQL = Below Quantifiable Limit < 1.00 μg/mL) and 1.95 μg/mL. Besides, in data set [9] (individual rats 8, 9, 11), the “plasma concentration at 6 hours” value was 2.96 μg/mL and BQL (BQL = Below Quantifiable Limit < 1.00 μg/mL) and 1.73 μg/mL; the “plasma concentration at 8 hours” value was 2.58 μg/mL and BQL (BQL = Below Quantifiable Limit < 1.00 μg/mL) and 2.06 μg/mL; the “plasma concentration at 12 hours” value is 2850 ng/mL and 2230 ng/mL and 2080 ng/mL; the “plasma concentration at 24 hours” value is 2220 ng/mL and 1290 ng/mL and 1860 ng/mL. In data set [9] (individual rats 8, 9, 11), the “plasma concentration at 48 hours” value is 1640 ng/mL and 1030 ng/mL and 1140 ng/mL; the “plasma concentration at 72 hours” value was 1.25 μg/mL and BQL (BQL = Below Quantifiable Limit < 1.00 μg/mL) (2×). The “plasma concentration at 96 hours” value in data set [9] (individual rats 8, 11) is listed as “BQL (BQL = Below Quantifiable Limit < 1.00 μg/mL)”. For the same compound, the “plasma concentration at 120 hours” value in [9] (rat 8) is given as “BQL (BQL = Below Quantifiable Limit < 1.00 μg/mL)”. In data set [1], this compound gave a half-maximal inhibitory concentration (IC50) of 220 nM. The “inhibition of cytochrome P450 2C9, in words” value in [2] is listed as “quite potent”.

Consider `C=CCOC(=O)C(Oc1cccc(C(F)(F)F)c1)c1ccc(Cl)cc1` (single isomer, unassigned) [Compound 19.1], for which the half-life in [10] is 5.5 h.

Values taken from patent publication US20040039053A1, “Use of(-) (3-halomethylphenoxy) (4-halophenyl) acetic acid derivatives for treatment of insulin resistance, type 2 diabetes, hyperlipidemia and hyperuricemia” (priority 2000, published 2004).
